Test results as given in US8853215B2, “Derivatives of N-acyl-N′-phenylpiperazine useful (inter alia) for the prophylaxis or treatment of diabetes” (Takeda Pharmaceutical Company Limited, priority 2009, dated 2014).

Assays:
[1] = molecular target: RBP4 (Mus musculus (Mouse), UniProt Q00724); assay: Single administration test in mice, plasma RBP4 by ELISA; assay type: in vivo; settings: male C57BL/6J or ICR mice, 50 mg/kg oral single dose, mean±SD
Outline: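 Male 6–12-week-old C57BL/6J or ICR mice on CE2 diet received compound orally at 50 mg/10 mL/kg in 0.5% methylcellulose (3–5 per group). Plasma sampled at 0, 4, 7 and 24 hr post-dose; RBP4 measured by sandwich ELISA (OD 450 nm) against mouse recombinant RBP4 standards, expressed as % of initial/Control.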

[2] = molecular target: human RBP4 (Homo sapiens (Human), UniProt P02753); assay: Binding assay by Retinol-RBP4-TTR ELISA
Outline: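 Biotinylated human TTR was captured on streptavidin plates, then His-tagged human RBP4 was added with compound premixed with 50 nM retinol (8 doses). Binding ran 2 h at room temperature in 50 mM Tris-HCl, 150 mM NaCl, 0.005% Tween 20, 1 mM DTT, 0.1% BSA, read by luminescence. Inhibition was scaled between retinol+DMSO and retinol-free controls, and IC50 fitted.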

RBP4 (% of initial/Control) 0 hr ([1]; 0 hr (just before the administration)): 100.0 ± 25.0 % of initial/Control | RBP4 (% of initial/Control) 4 hr ([1]; 4 hr after administration): 52.4 ± 2.8 % of initial/Control | RBP4 (% of initial/Control) 7 hr ([1]; 7 hr after administration): 50.2 ± 0.9 % of initial/Control | RBP4 (% of initial/Control) 24 hr ([1]; 24 hr after administration): 145.9 ± 19.6 % of initial/Control | inhibition at 10 µM ([2]; at 10 μM compound, read-out: human RBP4 binding inhibitory activity(% at 10 μM)): 100% | IC50 ([2]; retinol 50 nM, His-tagged human RBP4, biotinylated human TTR, read-out: human RBP4 binding inhibitory activity (IC50 nM)): 38 nM
SMILES: CC(C)(C)c1ccccc1N1CCN(C(=O)C(=O)O)CC1 [Example 44, 2-[4-(2-tert-Butylphenyl)piperazin-1-yl]-2-oxoacetic acid]
